Laboratory results taken from the CheMixHub viscosity set.

Test: xn = mol fraction of the nth substance listed

CCc1ccccc1 + C1CCCCC1
303.15 K, 101 kPa
Details	viscosity [mPa·s]
x2 = 0.1	0.5951
x2 = 0.199	0.5943
x2 = 0.2994	0.5972
x2 = 0.3986	0.6025
x2 = 0.5008	0.6166
x2 = 0.5984	0.6366
x2 = 0.7004	0.6596
x2 = 0.798	0.7008
x2 = 0.9002	0.7571

Clc1cccc2ccccc12 + CCCCCO
viscosity [mPa·s], 101.33 kPa
Details	x1 = 0.1019	x1 = 0.1914	x1 = 0.3014	x1 = 0.371	x1 = 0.4944	x1 = 0.6006	x1 = 0.6961	x1 = 0.7909	x1 = 0.9013
298.15 K	3.204	3.078	2.928	2.833	2.708	2.669	2.659	2.702	2.761
303.15 K	2.83	2.704	2.555	2.473	2.388	2.364	2.358	2.393	2.464
308.15 K	2.469	2.37	2.232	2.179	2.115	2.107	2.107	2.134	2.217

Clc1ccccc1 + COC(C)=O
viscosity [mPa·s], 101 kPa
Details	298.15 K	308.15 K
x2 = 0.0395	0.734	0.662
x2 = 0.1406	0.685	0.619
x2 = 0.2347	0.642	0.581
x2 = 0.3286	0.602	0.547
x2 = 0.4168	0.566	0.516
x2 = 0.4647	0.548	0.5
x2 = 0.5282	0.525	0.479
x2 = 0.6291	0.491	0.448
x2 = 0.7341	0.458	0.418
x2 = 0.8394	0.427	0.39
x2 = 0.9331	0.401	0.367

CCCCC(CC)CN (stereo unspecified) + COCCOCCOCCOCCOC
viscosity [mPa·s], 101.33 kPa
Details	x2 = 0.0607	x2 = 0.127	x2 = 0.199	x2 = 0.279	x2 = 0.368	x2 = 0.466	x2 = 0.576	x2 = 0.699	x2 = 0.84
303.2 K	1.04	1.14	1.26	1.39	1.58	1.74	1.99	2.24	2.55
313.2 K	0.89	0.97	1.07	1.16	1.3	1.43	1.59	1.87	2.09

COC(C)(C)C + c1ccccc1
Details	viscosity [mPa·s]
293.15 K, 101.33 kPa, x1 = 0.0933	0.629
293.15 K, 101.33 kPa, x1 = 0.1906	0.5805
293.15 K, 101.33 kPa, x1 = 0.2994	0.5449
293.15 K, 101.33 kPa, x1 = 0.3965	0.5122
293.15 K, 101.33 kPa, x1 = 0.5143	0.4813
293.15 K, 101.33 kPa, x1 = 0.6083	0.4593
293.15 K, 101.33 kPa, x1 = 0.7015	0.4466
293.15 K, 101.33 kPa, x1 = 0.8071	0.416
293.15 K, 101.33 kPa, x1 = 0.9024	0.4052
298.15 K, 101 kPa, x1 = 0.0502	0.566
298.15 K, 101 kPa, x1 = 0.0999	0.551
298.15 K, 101 kPa, x1 = 0.1994	0.499
298.15 K, 101 kPa, x1 = 0.3005	0.473
298.15 K, 101 kPa, x1 = 0.4006	0.457
298.15 K, 101 kPa, x1 = 0.5003	0.437
298.15 K, 101 kPa, x1 = 0.6	0.422
298.15 K, 101 kPa, x1 = 0.7003	0.397
298.15 K, 101 kPa, x1 = 0.8	0.395
298.15 K, 101 kPa, x1 = 0.8997	0.376
298.15 K, 101 kPa, x1 = 0.9497	0.372
298.15 K, 101.33 kPa, x1 = 0.0933	0.5806
298.15 K, 101.33 kPa, x1 = 0.1906	0.5446
298.15 K, 101.33 kPa, x1 = 0.2994	0.5084
298.15 K, 101.33 kPa, x1 = 0.3965	0.4776
298.15 K, 101.33 kPa, x1 = 0.5143	0.4676
298.15 K, 101.33 kPa, x1 = 0.6083	0.4417
298.15 K, 101.33 kPa, x1 = 0.7015	0.4227
298.15 K, 101.33 kPa, x1 = 0.8071	0.4037
298.15 K, 101.33 kPa, x1 = 0.9024	0.398
303.15 K, 101 kPa, x1 = 0.118	0.536
303.15 K, 101 kPa, x1 = 0.2242	0.51
303.15 K, 101 kPa, x1 = 0.3408	0.483
303.15 K, 101 kPa, x1 = 0.5123	0.445
303.15 K, 101 kPa, x1 = 0.6615	0.413
303.15 K, 101 kPa, x1 = 0.8195	0.382
